Test results taken from US20220323406A1, “METHODS AND COMPOSITIONS FOR DIFFERENTIATING STEM CELLS” (Massachusetts Institute of Technology, priority 2019, published 2022).
“Also recorded” adds a separate entry of the source. Where two headings read alike, the source gives them in different places.

Legend:
[1] = system: ENR+CD organoids;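 further: compounds given at plating and again on day 3 over a 6-day differentiation from ENR+CV stem-cell-enriched precursors, ATP measured on day 6, plate median as control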
[2] = system: ENR+CD organoids (ISC to Paneth cell differentiation); experiment: Primary screen: basal (non-stimulated) lysozyme secretion LYZ.NS, 2.5-D 384-well ENR+CD organoid differentiation; assay type: cell-based, mouse
From the text: (§1) High-throughput screening.

[3] = system: ENR+CD organoids (ISC to Paneth cell differentiation); experiment: Primary screen: CCh-stimulated lysozyme secretion LYZ.S, 2.5-D 384-well ENR+CD organoid differentiation; assay type: cell-based, mouse; details: primary screen
From the text: as §1

[4] = system: 3D-cultured intestinal organoids (ENR or ENR+CD); experiment: Lysozyme secretion assay (3D culture), normalized to ATP; assay type: cell-based, mouse; details: 6-day ENR+CD differentiation; for Paneth cell differentiation (functional LYZ secretion), in combination with KPT-330: with KPT-330 (160 nM)
Description: Lysozyme assay (3D culture). ISC-enriched organoids cultured in 3D Matrigel with ENRCV media were passaged to 48-well plate in 3D Matrigel with ENRCV. At day zero, media were replaced to ENR or ENRCD with or without indicated compounds, and media were replaced every other day. At day six, cells were washed twice with basal media and treated with carbamylcholine chloride (Sigma, C4382) for 3 hours. Media were collected and lysozyme activity was measured by EnzChek Lysozyme Assay Kit (ThermoFisher, E22013).
Lysozyme secretion assay. ISC-enriched organoids in 3D Matrigel culture were passaged to a 48- or 96-well plate and cultured with ENR or ENR+CD media containing DMSO or each drug for 6 days. DMSO- or drug-containing media were changed every other day. On day 6, cells were washed with basal media twice and treated with basal media with or without 10 μM carbamoylcholine chloride for 3 h in a CO2 incubator at 37° C. A part of the conditioned media was collected and used for lysozyme assay (Thermo, E-22013) following the manufacturer's instruction. The fluorescence was measured using excitation/emission of 485/530 nm. CellTiter-Glo 3D Reagent (Promega, G9681) was added afterward, and the cell culture plate was incubated on an orbital shaker at RT for 30 min to induce cell lysis and to stabilize the luminescent signal. The solution was replaced to a 96-well white microplate, and luminescent signals were measured by a microplate reader (infinite M200, Tecan). The standard curve was prepared by diluting recombinant ATP (Promega, P1132). For both assays, a polynomial cubic curve was fitted to a set of standard data, and each sample value was calculated on the Microsoft Excel.

[5] = system: ENR+CD organoids; experiment: Secondary (validation) screen: ATP (CTG) assay, 2.5-D 384-well ENR+CD organoids; assay type: cell-based, mouse; details: 6-day ENR+CD, vs ENR+CD+DMSO
[6] = system: ENR+CD organoids (ISC to Paneth cell differentiation); experiment: Secondary (validation) screen: LYZ.S CCh-stimulated lysozyme secretion, 2.5-D 384-well ENR+CD organoids; assay type: cell-based, mouse; details: 6-day ENR+CD, vs ENR+CD+DMSO
[7] = system: ENR+CD organoids (ISC to Paneth cell differentiation); experiment: Secondary (validation) screen: LYZ.NS basal lysozyme secretion, 2.5-D 384-well ENR+CD organoids; assay type: cell-based, mouse; details: 6-day ENR+CD, vs ENR+CD+DMSO
[8] = primary screen, standard z score, dose 0.08 uM
[9] = primary screen, standard z score, dose 0.40 uM
[10] = primary screen, standard z score, dose 2.00 uM
[11] = primary screen, standard z score, dose 10.00 uM
[12] = primary screen, dose 0.08 uM, standard z score
[13] = primary screen, dose 0.40 uM, standard z score
[14] = primary screen, dose 2.00 uM, standard z score
[15] = primary screen, dose 10.00 uM, standard z score
[16] = primary screen; dose 0.08 uM; FC vs plate median
[17] = primary screen; dose 0.40 uM; FC vs plate median
[18] = primary screen; dose 2.00 uM; FC vs plate median
[19] = LYZ.NS and LYZ.S; 0.08-10 uM, 6 days ENR+CD

C=C1C[C@@H]2[C@H](CC[C@]3(C)C(=O)CC[C@@H]23)[C@@]2(C)C=CC(=O)C=C12 [Exemestane]
Dose.FC.CTG ([1]; primary screen, dose 0.08 uM): −0.046 log2 fold change
Dose.FC.CTG ([1]; primary screen, dose 0.40 uM): −0.407 log2 fold change
Dose.FC.CTG ([1]; primary screen, dose 2.00 uM): 0.170 log2 fold change
Dose.FC.CTG ([1]; primary screen, dose 10.00 uM): −0.167 log2 fold change
Z.CTG [1, 8]: −0.110
Z.CTG [1, 9]: −0.973
Z.CTG [1, 10]: 0.405
Z.CTG [1, 11]: −0.398
Dose.FC.LYZ.NS ([2]; primary screen, dose 0.08 uM): 0.051 log2 fold change
Dose.FC.LYZ.NS ([2]; primary screen, dose 0.40 uM): 0.079 log2 fold change
Dose.FC.LYZ.NS ([2]; primary screen, dose 2.00 uM): 0.001 log2 fold change
Dose.FC.LYZ.NS ([2]; primary screen, dose 10.00 uM): 0.007 log2 fold change
Z.LYZ.NS [2, 8]: 0.447
Z.LYZ.NS [2, 9]: 0.687
Z.LYZ.NS [2, 10]: 0.012
Z.LYZ.NS [2, 11]: 0.060
Dose.FC.LYZ.S ([3]; dose 0.08 uM): 0.062 log2 fold change
Dose.FC.LYZ.S ([3]; dose 0.40 uM): 0.035 log2 fold change
Dose.FC.LYZ.S ([3]; dose 2.00 uM): 0.058 log2 fold change
Dose.FC.LYZ.S ([3]; dose 10.00 uM): −0.005 log2 fold change

C[C@@H]1O[C@@H](O[C@H]2C[C@@H](O)[C@]3(CO)[C@H]4[C@H](O)C[C@]5(C)[C@@H](C6=CC(=O)OC6)CC[C@]5(O)[C@@H]4CC[C@]3(O)C2)[C@H](O)[C@H](O)[C@H]1O [Ouabain]
Dose.FC.CTG ([1]; 10 µM): −0.288 log2 fold change
Z.CTG [1, 12]: 0.023
Z.CTG [1, 13]: 0.290
Z.CTG [1, 14]: 0.190
Z.CTG [1, 15]: −0.688
Dose.FC.CTG [1, 16]: 0.010 log2 fold change
Dose.FC.CTG [1, 17]: 0.122 log2 fold change
Dose.FC.CTG [1, 18]: 0.080 log2 fold change
Z.LYZ.NS [2, 12]: −0.025
Z.LYZ.NS [2, 13]: 0.315
Z.LYZ.NS [2, 14]: 0.092
Z.LYZ.NS [2, 15]: 1.433
Dose.FC.LYZ.NS [2, 16]: −0.003 log2 fold change
Dose.FC.LYZ.NS [2, 17]: 0.036 log2 fold change
Dose.FC.LYZ.NS [2, 18]: 0.011 log2 fold change
Dose.FC.LYZ.NS ([2]; primary screen; dose 10.00 uM; FC vs plate median): 0.165 log2 fold change
Dose.FC.LYZ.S ([3]; dose 0.08 uM, FC vs plate median): 0.040 log2 fold change
Dose.FC.LYZ.S ([3]; dose 0.40 uM, FC vs plate median): 0.035 log2 fold change
Dose.FC.LYZ.S ([3]; dose 2.00 uM, FC vs plate median): 0.003 log2 fold change
Dose.FC.LYZ.S ([3]; dose 10.00 uM, FC vs plate median): 0.050 log2 fold change

CC1=C(/C=C/C(=C/C=C/C(C)=C/C(=O)O)c2ccc(C)cc2)C(C)(C)CCC1 [SR11302]
Paneth cell differentiation (functional LYZ secretion), compound alone [4]: also decreases functional LYZ secretion
Paneth cell differentiation (functional LYZ secretion), in combination with KPT-330 [4]: significantly decreases functional LYZ secretion

CCc1c(C(=O)C(N)=O)c2c(OCC(=O)O)cccc2n1Cc1ccccc1 [Varespladib (LY315920), Varespladib, reference compound]
Dose.FC.CTG ([5]; 0.02 uM): 0.027 log2 fold change
Dose.FC.CTG ([5]; 0.04 uM): 0.113 log2 fold change
Dose.FC.CTG ([5]; 0.08 uM): 0.207 log2 fold change
Dose.FC.CTG ([5]; […]): 0.148 log2 fold change
Dose.FC.CTG ([1]; primary screen, dose 0.08 uM): 0.428 log2 fold change
Z.CTG (standard z score) ([1]; primary screen, dose 0.08 uM): 1.022
Dose.FC.CTG ([1]; primary screen, dose 0.40 uM): 0.362 log2 fold change
Z.CTG (standard z score) ([1]; primary screen, dose 0.40 uM): 0.864
Dose.FC.CTG ([1]; primary screen, dose 2.00 uM): 0.152 log2 fold change
Z.CTG (standard z score) ([1]; primary screen, dose 2.00 uM): 0.363
Dose.FC.CTG ([1]; primary screen, dose 10.00 uM): 0.241 log2 fold change
Z.CTG (standard z score) ([1]; primary screen, dose 10.00 uM): 0.575
primary screen hit call (SSMD and z-scored FC cutoffs in both LYZ assays) [2, 19]: sole hit in their respective pathway
Dose.FC.LYZ.NS ([2]; primary screen, dose 0.08 uM): 0.176 log2 fold change
Z.LYZ.NS (standard z score) ([2]; primary screen, dose 0.08 uM): 1.533
Dose.FC.LYZ.NS ([2]; primary screen, dose 0.40 uM): 0.197 log2 fold change
Z.LYZ.NS (standard z score) ([2]; primary screen, dose 0.40 uM): 1.719
Dose.FC.LYZ.NS ([2]; primary screen, dose 2.00 uM): 0.164 log2 fold change
Z.LYZ.NS (standard z score) ([2]; primary screen, dose 2.00 uM): 1.430
Dose.FC.LYZ.NS ([2]; primary screen, dose 10.00 uM): 0.074 log2 fold change
Z.LYZ.NS (standard z score) ([2]; primary screen, dose 10.00 uM): 0.643
Dose.FC.LYZ.S ([6]; 0.02 uM): −0.138 log2 fold change
Dose.FC.LYZ.S ([6]; 0.04 uM): −0.044 log2 fold change
Dose.FC.LYZ.S ([6]; 0.08 uM): 0.065 log2 fold change
Dose.FC.LYZ.S ([6]; […]): 0.102 log2 fold change
Dose.FC.LYZ.S ([3]; dose 0.08 uM): 0.274 log2 fold change
Dose.FC.LYZ.S ([3]; dose 0.40 uM): 0.157 log2 fold change
Dose.FC.LYZ.S ([3]; dose 2.00 uM): 0.176 log2 fold change
Dose.FC.LYZ.S ([3]; dose 10.00 uM): 0.051 log2 fold change
Dose.FC.LYZ.NS ([7]; 0.02 uM): −0.091 log2 fold change
Dose.FC.LYZ.NS ([7]; 0.04 uM): 0.015 log2 fold change
Dose.FC.LYZ.NS ([7]; 0.08 uM): 0.090 log2 fold change
Dose.FC.LYZ.NS ([7]; […]): 0.156 log2 fold change

COc1cc2c(Nc3ccc(NC(=O)c4ccccc4)cc3)ncnc2cc1OCCCN1CCOCC1 [ZM447439, reference compound]
Paneth cell differentiation (functional LYZ secretion), compound alone [4]: did significantly increase Paneth cell differentiation
primary screen hit call (SSMD and z-scored FC cutoffs in both LYZ assays) [2, 19]: lower-effect size hit of the primary screen

O=C(c1ccc(F)c(F)c1Nc1ccc(I)cc1F)N1CC(O)([C@@H]2CCCCN2)C1 [cobimetinib]
Paneth cell differentiation (functional LYZ secretion), compound alone [4]: did not significantly alter Paneth cell differentiation
Paneth cell differentiation (functional LYZ secretion), in combination with KPT-330 [4]: differentiation was enhanced; also recorded: significantly enhance Paneth cell differentiation

Cc1ccc(C(=O)Cn2c3c(sc2=N)CCCC3)cc1 [pifithrin-α]
Paneth cell differentiation (functional LYZ secretion), compound alone [4]: neither P53 inhibitor altered Paneth cell differentiation
Paneth cell differentiation (functional LYZ secretion), in combination with KPT-330 [4]: neither P53 inhibitor altered Paneth cell differentiation

c1ccc2c(CCNc3ccc(Nc4ccncc4)cc3)c[nH]c2c1 [serdemetan]
Paneth cell differentiation (functional LYZ secretion), compound alone [4]: neither P53 inhibitor altered Paneth cell differentiation
Paneth cell differentiation (functional LYZ secretion), in combination with KPT-330 [4]: neither P53 inhibitor altered Paneth cell differentiation
